# Data published in patent US5097014A, “Chromogenic tripeptides” (Behringwerke Aktiengesellschaft, priority 1986, dated 1992).
# Square brackets hold non-standard residues; d marks the D form. Peptide text beside a SMILES is read from it. * marks the point of attachment. pNA = O=[N+]([O-])c1ccc(N*)cc1; pGlu = O=C1CC[C@@H](C(=O)O)N1
# Tests used:
# Format in all cases: biochemical
# Conditions in all cases: substrate solution 2 mmol/l (100 μl in 1 ml), tris buffer 50 mmol/l pH 8.0, 37° C.; pNA measured at 405 nm, Blue 49 at 623 nm
# protein C = protein C (Homo sapiens, UniProt P04070); assay: Substrate testing: cleavage of chromogenic substrate by protein C
# Experimental: (§1) 100 μl of the enzyme solution were added to a 800 μl of buffer solution (trishydroxyaminomethane, 50 mmol/l), pH 8.0, at 37° C., and 100 μl of 2 mmol/l of substrate solution were added. pNA cleaved off was measured at 405 nm, and Blue 49 or Blue 124 was measured at 623 nm. The cleavage rates were determined in OD/minute. The relative cleavage raten, and thus the specificities of some substrates and enzymes, can be seen from Table II.
# thrombin = thrombin (Homo sapiens, UniProt P00734); assay: Substrate testing: cleavage of chromogenic substrate by thrombin
# Experimental: as §1
# plasmin = plasmin (Homo sapiens, UniProt P00747); assay: Substrate testing: cleavage of chromogenic substrate by plasmin
# Experimental: as §1
# F Xa = F Xa (Homo sapiens, UniProt P00742); assay: Substrate testing: cleavage of chromogenic substrate by F Xa
# Experimental: as §1
# kallikrein = assay: Substrate testing: cleavage of chromogenic substrate by kallikrein
# Experimental: as §1
# urokinase = urokinase (Homo sapiens, UniProt P00749); assay: Substrate testing: cleavage of chromogenic substrate by urokinase
# Experimental: as §1
# Sequence of F Xa (P00742 235-488 limits assumed): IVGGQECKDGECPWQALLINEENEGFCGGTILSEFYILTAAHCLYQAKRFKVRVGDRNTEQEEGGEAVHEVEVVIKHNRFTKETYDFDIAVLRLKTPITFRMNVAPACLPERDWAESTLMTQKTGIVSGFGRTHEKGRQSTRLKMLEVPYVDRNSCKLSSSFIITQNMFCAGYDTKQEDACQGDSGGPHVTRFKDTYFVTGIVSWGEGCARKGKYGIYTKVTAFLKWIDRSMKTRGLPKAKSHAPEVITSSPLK
# Sequence of F Xa (P00742 41-179 partner limits assumed): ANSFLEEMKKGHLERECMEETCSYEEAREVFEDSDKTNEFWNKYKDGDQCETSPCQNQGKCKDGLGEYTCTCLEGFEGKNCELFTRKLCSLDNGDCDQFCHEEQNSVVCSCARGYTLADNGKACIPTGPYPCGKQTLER
# Sequence of plasmin (P00747 581-810 limits assumed, species assumed): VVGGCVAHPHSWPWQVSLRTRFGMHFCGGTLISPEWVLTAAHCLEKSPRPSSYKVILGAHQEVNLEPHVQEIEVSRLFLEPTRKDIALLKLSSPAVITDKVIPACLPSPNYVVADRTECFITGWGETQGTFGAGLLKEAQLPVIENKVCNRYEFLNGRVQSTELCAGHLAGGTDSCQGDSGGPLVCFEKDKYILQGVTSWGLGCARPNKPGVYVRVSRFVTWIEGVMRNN
# Sequence of plasmin (P00747 97-580 partner limits assumed, species assumed): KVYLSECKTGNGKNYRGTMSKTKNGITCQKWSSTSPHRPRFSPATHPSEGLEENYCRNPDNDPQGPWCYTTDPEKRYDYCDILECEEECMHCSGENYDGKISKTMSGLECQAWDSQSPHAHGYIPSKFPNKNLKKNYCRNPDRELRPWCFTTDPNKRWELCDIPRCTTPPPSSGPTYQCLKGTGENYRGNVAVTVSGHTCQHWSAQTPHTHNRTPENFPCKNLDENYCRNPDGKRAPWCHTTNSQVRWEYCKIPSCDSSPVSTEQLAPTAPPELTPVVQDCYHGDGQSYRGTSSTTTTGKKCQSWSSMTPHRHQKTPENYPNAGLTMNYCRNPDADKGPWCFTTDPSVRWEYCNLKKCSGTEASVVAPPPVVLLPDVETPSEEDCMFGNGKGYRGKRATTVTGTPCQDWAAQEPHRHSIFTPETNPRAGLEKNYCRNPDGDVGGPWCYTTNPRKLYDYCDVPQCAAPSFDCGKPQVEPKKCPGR
# Sequence of protein C (P04070 212-461 limits assumed): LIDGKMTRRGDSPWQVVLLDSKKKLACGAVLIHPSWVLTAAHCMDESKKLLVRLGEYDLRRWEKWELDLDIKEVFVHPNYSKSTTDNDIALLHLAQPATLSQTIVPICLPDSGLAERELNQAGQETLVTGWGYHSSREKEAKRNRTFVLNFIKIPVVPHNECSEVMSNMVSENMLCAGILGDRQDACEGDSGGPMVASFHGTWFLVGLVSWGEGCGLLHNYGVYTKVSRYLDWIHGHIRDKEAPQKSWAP
# Sequence of protein C (P04070 43-197 partner limits assumed): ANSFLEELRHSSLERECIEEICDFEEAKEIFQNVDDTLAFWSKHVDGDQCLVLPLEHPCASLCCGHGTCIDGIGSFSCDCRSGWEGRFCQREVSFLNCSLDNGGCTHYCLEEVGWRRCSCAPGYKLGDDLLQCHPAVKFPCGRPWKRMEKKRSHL
Molecule,"cleavage rate, protein C (protein C) [OD/minute]","cleavage rate, thrombin (thrombin) [OD/minute]","cleavage rate, plasmin (plasmin) [OD/minute]","cleavage rate, F Xa (F Xa) [OD/minute]","cleavage rate, urokinase (urokinase)","cleavage rate, kallikrein (kallikrein) [OD/minute]"
"N=C(N)NCCC[C@H](NC(=O)[C@@H]1CCCCN1C(=O)[C@H](N)Cc1ccccc1)C(=O)Nc1ccc([N+](=O)[O-])cc1 [H--D--Phe--Pip--Arg--pNA, reference compound]",0.075,0.41,0.035,0.025,,0.11
"N=C(N)NCCC[C@H](NC(=O)CNC(=O)[C@@H]1CCC(=O)N1)C(=O)Nc1ccc([N+](=O)[O-])cc1 [pyro--Glu--Gly--Arg--pNA, reference compound] ([pGlu]-Gly-Arg-pNA)",0.30,0.00,0.01,0.01,,0.01
D--Leu--Pro--Arg--Blue 49 [H--D--Leu--Pro--Arg--Blue 49],0.47,0.09,0.015,0.035,,0.015

# Second part, led by results:
"cleavage rate, protein C (protein C) [OD/minute]","cleavage rate, thrombin (thrombin) [OD/minute]","cleavage rate, plasmin (plasmin) [OD/minute]","cleavage rate, F Xa (F Xa) [OD/minute]","cleavage rate, urokinase (urokinase)",Molecule,"cleavage rate, kallikrein (kallikrein) [OD/minute]"
0.03,0.395,0.00,0.01,,7-(D-phenylalanyl-L-prolyl-L-arginylamino)-3-diethylamino-8-methylphenoxazo nium triacetate [H--D--Phe--Pro--Arg--Blue 49],0.00
0.40,0.41,0.53,0.04,,"N=C(N)NCCC[C@H](NC(=O)[C@@H]1CCCN1C(=O)[C@@H]1CCC(=O)N1)C(=O)Nc1ccc([N+](=O)[O-])cc1 [pyro--Glu--Pro--Arg--pNA, reference compound] ([pGlu]-Pro-Arg-pNA)",0.51
0.76,0.15,0.02,0.095,,Tos--Gly--Pro--Arg--Blue 49,0.02
0.22,0.015,0.03,0.02,"1,0 OD/minute",pyro--Glu--Pro--Arg--Blue 49,0.015
